The supplement of paper PMC10307832

Legend:
Assay in all cases: relative viability (nuclei count vs DMSO), 5 days (fraction); higher = more cells survive
[1] = compound: COC1=CC=C(C=C1)CN2C=CC3=C2C=C(C=C3)C(=O)NO + COc1cccc2cc(-c3nc([C@H]4CC[C@H](C(=O)O)CC4)n4ncnc(N)c34)[nH]c12 [OSI-027] (partner 0.5 µM)
Procedure, shortened: (§1)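 Lung cancer cell lines in 1536-well plates got either a single drug or a fixed anchor-drug dose together with five library-drug doses (not always all listed) in √10 steps, by pin tool, on the day after seeding. Nuclei were counted after 5 days, and relative viability is the treated-to-vehicle ratio of nuclei counts. Values are medians of duplicate plates.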

Veliparib + Luminespib = compound: C[C@]1(c2nc3c(C(N)=O)cccc3[nH]2)CCCN1 [Veliparib] + CCNC(=O)c1noc(-c2cc(C(C)C)c(O)cc2O)c1-c1ccc(CN2CCOCC2)cc1 [Luminespib] (partner 0.01 µM)
Procedure, shortened: as §1

Veliparib + Lapatinib = compound: C[C@]1(c2nc3c(C(N)=O)cccc3[nH]2)CCCN1 [Veliparib] + CS(=O)(=O)CCNCc1ccc(-c2ccc3ncnc(Nc4ccc(OCc5cccc(F)c5)c(Cl)c4)c3c2)o1 [Lapatinib] (partner 2 µM)
Procedure, shortened: as §1

Veliparib + AZD7762 = compound: C[C@]1(c2nc3c(C(N)=O)cccc3[nH]2)CCCN1 [Veliparib] + NC(=O)Nc1cc(-c2cccc(F)c2)sc1C(=O)N[C@H]1CCCNC1 [AZD7762] (partner 0.2 µM)
Procedure, shortened: as §1

Row | Cell Line | relative viability ([1]; first compound 0.08 µM) | relative viability ([1]; first compound 0.253 µM) | relative viability ([1]; first compound 0.8 µM) | relative viability ([1]; first compound 2.53 µM) | relative viability ([1]; first compound 8 µM) | relative viability (Veliparib + Luminespib; first compound 0.02 µM) | relative viability (Veliparib + Luminespib; first compound 0.06325 µM) | relative viability (Veliparib + Luminespib; first compound 0.2 µM) | relative viability (Veliparib + Luminespib; first compound 0.6325 µM) | relative viability (Veliparib + Luminespib; first compound 2 µM) | relative viability (Veliparib + Lapatinib; first compound 0.02 µM) | relative viability (Veliparib + Lapatinib; first compound 0.06325 µM) | relative viability (Veliparib + Lapatinib; first compound 0.2 µM) | relative viability (Veliparib + Lapatinib; first compound 2 µM) | relative viability (Veliparib + AZD7762; first compound 0.02 µM) | relative viability (Veliparib + AZD7762; first compound 0.06325 µM) | relative viability (Veliparib + AZD7762; first compound 0.2 µM) | relative viability (Veliparib + AZD7762; first compound 0.6325 µM) | relative viability (Veliparib + AZD7762; first compound 2 µM) | relative viability (Veliparib + Lapatinib; first compound 0.6325 µM)
1 | LCLC-97TM1 | 0.346 | 0.531 | 0.546 | 0.342 | 0.374 | 0.729 | 0.729 | 0.884 | 0.671 | 0.678 | 0.734 | 0.828 | 1.45 | 1.22 | 0.164 | 0.264 | 0.191 | 0.274 | 0.31 | –
2 | LK-2 | – | 0.289 | 0.244 | 0.195 | 0.208 | – | 0.184 | 0.202 | 0.19 | 0.193 | 0.637 | 0.814 | 1.11 | 0.643 | 0.32 | 0.367 | 0.461 | 0.465 | 0.492 | 0.877
3 | LOU-NH91 | 0.761 | 0.699 | 0.729 | 0.749 | 0.709 | 0.339 | 0.401 | 0.352 | 0.285 | 0.342 | 0.708 | 0.656 | 0.82 | 0.781 | 0.768 | 0.705 | 0.75 | 0.723 | 0.821 | 0.735
4 | LU99A | – | 0.326 | 0.295 | 0.259 | 0.258 | 0.284 | 0.25 | 0.191 | 0.228 | 0.237 | 1.03 | 0.926 | 0.585 | 0.87 | 0.403 | 0.385 | 0.322 | 0.283 | 0.317 | 0.859
5 | LXF-289 | – | 0.823 | 0.896 | 0.908 | 0.716 | 0.652 | 0.712 | 0.759 | 0.545 | 0.601 | 0.903 | 0.878 | 0.897 | 0.928 | 1.06 | 1.06 | 1.12 | 1.09 | 1.14 | 0.904
6 | NCI-H23 | 0.511 | 0.68 | 0.582 | 0.732 | 0.53 | 0.168 | – | 0.251 | 0.24 | 0.228 | 1.19 | 0.995 | 0.84 | 1.01 | 0.35 | 0.216 | 0.201 | 0.277 | 0.28 | 0.873
7 | NCI-H322M | – | 0.529 | 0.555 | 0.397 | 0.487 | – | 0.814 | 0.915 | 0.855 | 0.848 | 0.722 | 0.602 | 0.629 | 0.471 | – | 0.629 | 0.573 | 0.744 | 0.611 | 0.61
8 | NCI-H358 | – | 0.861 | 0.722 | 0.739 | 0.67 | 0.308 | 0.975 | 0.248 | 0.246 | 0.548 | – | 0.464 | 0.503 | 0.452 | – | 0.487 | 0.671 | 0.552 | 0.676 | 0.393
9 | NCI-H460 | 0.547 | 0.721 | 0.664 | 0.607 | 0.595 | 0.0408 | 0.0256 | 0.0384 | 0.0245 | 0.0352 | – | 0.866 | 0.909 | 1.01 | 0.635 | 0.469 | 0.602 | 0.583 | 0.516 | 0.904
10 | NCI-H596 | 0.79 | 0.779 | 0.768 | 0.721 | 0.598 | 0.975 | 1.02 | 1.17 | 0.889 | 0.919 | 1.14 | 0.902 | 1.01 | 1.01 | 1.34 | 1.22 | 1.17 | 1.13 | 0.952 | 1.19
11 | NCI-H647 | 0.531 | 0.752 | 0.49 | 0.634 | 0.492 | 0.249 | 0.142 | 0.195 | 0.12 | 0.359 | 1.24 | 0.986 | 0.973 | 1.16 | 0.53 | 0.415 | 0.429 | 0.552 | 0.394 | 1
12 | NCI-H650 | 0.524 | 0.494 | 0.52 | 0.526 | 0.438 | 0.768 | 0.708 | 0.652 | 0.721 | 0.797 | 0.82 | 0.827 | 0.816 | 0.501 | 1.07 | 0.798 | 1.14 | 0.96 | 0.944 | 0.932
13 | NCI-H727 | 0.592 | 0.576 | 0.513 | 0.809 | 0.534 | 0.442 | 0.33 | 0.364 | 0.265 | 0.353 | 0.388 | 0.759 | 0.9 | 0.734 | 0.627 | 0.495 | 0.784 | 0.681 | 0.603 | 0.876
14 | NCI-H838 | – | 0.361 | 0.41 | 0.395 | 0.398 | 0.287 | 0.32 | 0.302 | 0.295 | 0.25 | 1.12 | 0.842 | 0.902 | 0.979 | 0.998 | 0.914 | 0.963 | 0.94 | 0.937 | 0.847
15 | NCI-H1355 | – | 0.409 | 0.463 | 0.457 | 0.38 | – | 0.543 | 0.664 | 0.658 | 0.62 | – | 0.882 | 0.999 | 0.968 | 0.733 | 0.685 | 0.726 | 0.684 | 0.739 | 0.939
16 | NCI-H1395 | 0.562 | 0.579 | 0.628 | 0.667 | 0.549 | 0.586 | 0.624 | 0.648 | 0.659 | 0.542 | – | 0.76 | 0.874 | 0.83 | 0.454 | 0.359 | 0.411 | 0.405 | 0.405 | 0.716
17 | NCI-H1437 | 0.774 | 0.907 | 0.897 | 0.807 | 0.907 | 0.978 | 1.1 | 1.07 | 1.1 | 1.09 | 0.519 | 0.794 | 0.72 | 0.759 | 0.996 | 1.07 | 1.17 | 1.13 | 1.09 | 0.78
